{
  "source": "patent US8399498B2",
  "about": "“Animal ectoparasite-controlling agent” (Sumitomo Chemical Company, Limited, priority 2010, dated 2013)",
  "format_in_all_cases": "in vivo",
  "key": {"[1]": {"tested_on": "Haemaphysalis longicornis", "experiment": "Dropping application against dog-infested ticks", "conditions": "dog (beagle), dropping application on skin of neck and back, 20 mg/kg", "description": "The previous day before dropping application, 100 test ticks (Haemaphysalis longicornis, young ticks) were deposited on a dog (beagle). Before the dropping application, infested ticks were counted.\nEach (1.5 g) of the present hydrazide compound (1) and Comparative compound (52) was dissolved in diethylene glycol monoethyl ether (6.0 g) to prepare a test solution. Said test solution was directly dropped on the skin of the neck and back of the dog while pushing aside fur thereon at a rate of 0.1 ml per 1 kg of the dog's body weight (dose amount: 20 mg/kg). This is referred to as a test group. On the other hand, diethylene glycol monoethyl ether alone was applied dropwise to a placebo group.\nTwo (2) days after the application, the number of living ticks, which were infesting the dogs, was examined. When the examination was completed, all infested ticks were removed from the dogs.\nThe infestation rate and control rate were calculated by the following formulae:\nMethod of calculating infestation rate and control rate at the initial stage (2 days) after the application: Infestation rate (%) at X days after application=(number of living ticks at X days/number of living ticks before application)×100 Control rate (%) at X days after application=(infestation rate of test group before application−infestation rate of test group at X days)/infestation rate of test group before application×100 […]"}, "[2]": {"tested_on": "Haemaphysalis longicornis", "experiment": "Dropping application against mouse-infested ticks", "conditions": "0.1% w/v solution 200 μL dropwise on whole body surface, 2 days after application", "description": "The previous day before dropping application, 30 test ticks (Haemaphysalis longicornis, young ticks) were deposited on a mouse. Before the dropping application, uninfested ticks were removed.\nThe present hydrazide compound (1) (5 mg) was dissolved in a mixture (5 mL) of propylene carbonate and diethylene glycol monoethyl ether in equal amounts to prepare a 0.1% w/v solution. Said solution (200 μL) was applied dropwise to the whole body surface of a mouse with a pipette. To a control group, the mixture (200 μL) alone was applied. Each application was repeated 3 times per group.\nTwo (2) days after the application, the number of dead ticks was examined and the mortality was calculated by the following formula: Mortality (%)=100×(number of dead ticks/infested ticks before dropping application)"}, "[3]": {"tested_on": "Haemaphysalis longicornis", "experiment": "Oral administration against mouse-infested ticks", "conditions": "test solution 20 mg/10 mL at 10 mL per 1 kg body weight, 2 days after administration", "description": "The previous day before oral administration, 30 test ticks (Haemaphysalis longicornis, young ticks) were deposited on a mouse. Before the oral administration, uninfested ticks were removed.\nThe present hydrazide compound (1) (20 mg) was dissolved in dimethylformamide (680 mg), and thereto a corn oil was added to prepare a test solution (10 mL). Said test solution was orally administered to the mouse at the rate of 10 mL per 1 kg of the body weight of the mouse with a gastric sonde. To a control group, a 7% dimethylformamide/corn oil solution alone was orally administered. Each administration was repeated 3 times per group.\nTwo (2) days after the administration, the number of dead ticks was examined and the mortality was calculated by the following formula: Mortality (%)=100×(number of dead ticks/infested ticks before oral administration)"}},
  "data": [
    {"smiles": "CC(=O)NNc1cc(C2=NOC(c3cc(Cl)cc(Cl)c3)(C(F)(F)F)C2)ccc1Cl", "note": "(stereo not shown) [Comparative compound (52), N′-{5-[5-(3,5-dichlorophenyl)-5-trifluoromethyl-4,5-dihydroisoxazol-3-yl]-2-chlorophenyl}acetohydrazide, reference compound]", "values": [
      {"measurement": "Tick control rates (%) at 2 days after the application", "setting": "[1]", "value": 44, "unit": "%"}
    ]},
    {"smiles": "COCC(=O)NNc1cc(C2=NOC(c3cc(Cl)cc(Cl)c3)(C(F)(F)F)C2)ccc1Cl", "note": "(stereo not shown) [Compound (1), N′-{2-chloro-5-[5-(3,5-dichlorophenyl)-5-trifluoromethyl-4,5-dihydroisoxazol-3-yl]phenyl}methoxyacetohydrazide]", "values": [
      {"measurement": "Mortality", "setting": "[2]", "value": "≥ 70", "unit": "%"},
      {"measurement": "Mortality", "setting": "[3]", "value": "≥ 90", "unit": "%"},
      {"measurement": "Tick control rates (%) at 2 days after the application", "setting": "[1]", "value": 94, "unit": "%"}
    ]}
  ]
}
